Patent US4215049A, “Antitumorigenic lactone derivative” (Nippon Kayaku Kabushiki Kaisha, priority 1977, dated 1980)
≈ marks a conversion by molar mass, not a printed value.

What was measured:
[1] = system: Ehrlich ascites cancer cells; test: Life-prolonging effect for mice suffering from Ehrlich ascites cancer; format: in vivo, mice (ICR/JCL); details: for Life prolongation rate: average survival days, control group indexed as 100; for life-prolonging effect for mice with Ehrlich ascites cancer (in words): in comparison with the control mice
Method: The mice of ICR/JCL species (.male., 5-week-old, 5 mice per group) were intraperitoneally inoculated with 2,000,000 pieces of Ehrlich ascites cancer cells, and the compounds of this invention were administered, starting 2 hours after inoculation, in the dosages shown in Table 5 below once a day for a total period of 10 days.
the drug treated groups as calculated with the average number of survival
days of the control group being indexed as 100.

HeLa S3 cells = test: Inhibitory effect against growth of HeLa S3 cells (in vitro); format: cell-based; details: for IC50: 72 h, HeLa S3 cells, read-out: ID50 (the source's name); for inhibitory effect against growth of cancer (HeLa) cells (in words): low concentration
Method: The roots (0.3 kg by half-dry weight), stalks (1.6 kg by half-dry weight) and leaves (2.1 kg by half-dry weight) were ground and extracted respectively with methanol. Each liquid extract was filtered and the filtrate was concentrated under reduced pressure to obtain an oily residue containing the object compounds.
(Note) The inhibitory effect against growth of the HeLa cells was determined in the manner described below.
The HeLa S3 cells were spread on 6 cm-diameter plastic laboratory plates in the amount of 0.7×10^5 cells/plate and cultured by using an MEM medium containing 60 μg/ml of kanamycin and 10% calf serum. 2 days later, the medium was replaced with one containing the compounds of this invention. The cell population at that time was 1.58×10^5 cells/plat. After addition of the compounds, the cells were cultured for three days, and then, after removing the medium, the culture was washed with a physiological saline solution, treated with 0.05% trypsin at room temperature for about 15 minutes, and then pipetted and dispersed. The number of surviving cells was counted by a […], and percent inhibition was measured by counting the number of the living cells in the control section to determine ID50. [formula]

[2] = 7.50 mg/kg once a day for 10 days
[3] = 15.0 mg/kg once a day for 10 days

SMILES	Life prolongation rate [1, 2]	Life prolongation rate [1, 3]	life-prolonging effect for mice with Ehrlich ascites cancer (in words) [1]	IC50 (HeLa S3 cells; Homo sapiens, 3 days) [µg/mL]	inhibition at 1 µg/mL (HeLa S3 cells; Homo sapiens, HeLa S3, 72 h, 1 μg/ml, 3 days, read-out: Percent inhibition) [%]	inhibition at 2 µg/mL (HeLa S3 cells; Homo sapiens, HeLa S3, 72 h, 2 μg/ml, 3 days, read-out: Percent inhibition) [%]	inhibition at 4 µg/mL (HeLa S3 cells; Homo sapiens, HeLa S3, 72 h, 4 μg/ml, 3 days, read-out: Percent inhibition) [%]	inhibitory effect against growth of cancer (HeLa) cells (in words) (HeLa S3 cells)	effect of compound III compared with compounds I and II (in words) ([1]; mouse, in vivo)	inhibition at 0.375 µg/mL (HeLa S3 cells; Homo sapiens, HeLa S3, 72 h, 0.375 μg/ml, 3 days, read-out: Percent inhibition) [%]	inhibition at 0.75 µg/mL (HeLa S3 cells; Homo sapiens, HeLa S3, 72 h, 0.75 μg/ml, 3 days, read-out: Percent inhibition) [%]	inhibition at 1.5 µg/mL (HeLa S3 cells; Homo sapiens, HeLa S3, 72 h, 1.5 μg/ml, 3 days, read-out: Percent inhibition) [%]
C=C1C(=O)OC2C=C(C)C(OC(C)=O)CC=C(C)CC(OC(=O)C(=CCO)CO)C12 (stereo not shown) [Compound I]	253	232	prominent life-prolonging effect	1.4 (≈ 3.33 µM)	29.4	74.9	100	high inhibitory effect against growth of the cancer cells	–	–	–	–
C=C1C(=O)OC2C=C(C)C(OC(C)=O)CC=C(C)CC(O)C12 (stereo not shown) [III]	95	108	–	–	–	–	–	–	not so conspicuous in effect as the compounds I and II	–	–	–
C=C1C(=O)OC2C=C(C)C(OC(C)=O)CC=C(C)CC(OC(=O)C(C)=CCO)C12 (stereo not shown) [II]	159	173	prominent life-prolonging effect	0.62 (≈ 1.53 µM)	–	–	–	high inhibitory effect against growth of the cancer cells	–	28.4	57	100
